Source: patent US12590096B2, “Imidazo[2,1-f][1,2,4]triazin-4-amine as TLR8 agonists” (BeOne Medicines | GmbH, priority 2019, dated 2026)
Like-named read-outs stand apart in the source and are kept apart here.

How the values were obtained:
[1] = system: PBMC (peripheral blood monocyte); assay: PBMC determination: cytokines in culture supernatant measured by HTRF; assay type: cell-based; settings: human PBMC, 24 h
Procedure: Determination of PBMC (Peripheral Blood Monocyte) Cell Preparation, Separation and Culture
Human whole blood was collected from healthy volunteers using BD Vacutainer® Lithium Heparin Tubes. PBMCs were prepared using Ficoll separation medium (GE Healthcare) by SopMate™ (STEMCELL). The cell survival rate was over 85% as monitored by Countstar. PBMCs were cultured in RPMI 1640 (Gibco) 10% (v/v) FBS (Gibco), 1×MEM NEAA (Gibco), 1× GlutaMAX (Gibco), 1 mM sodium pyruvate (Gibco), 50 uM 2-mercaptoethanol (sigma), and 100 U/ml penicillin-streptomycin (Thermo fisher Scientific).
PBMCs were plated into 96-well plates (costar 3894) with a density of 2×10^5 cells/well. Then, TLR7/8 compound was added, and serial dilution was carried out at ten points. The final concentration in 0.1% DMSO/RPMI 1640 ranged from 1 nM to 10 μM. Then, the plates were incubated in 5% CO2 at 37° C. for 24 h.
HTRF (Homogeneous Time-Resolved Fluorescence)
After the specified time point, according to the manufacturers recommendations, the cytokines in the cell culture supernatant were measured by Human IL6 kit (cisbio) and Human TNF alpha kit (cisbio). The EC50 of each compound was determined by calculating the maximum activation percentage identified using Resiquimod or Motolimod.

[2] = biological target: T1, human TLR 8 protein in HEK-blue hTLR 8 tool cell line (Homo sapiens, UniProt Q9NR97); assay: TLR8 stimulation determined by HEK-Blue Detection (NF-κB/SEAP reporter); assay type: cell-based; settings: HEK-Blue hTLR8 cells, 16 h incubation, relative to maximum activation by Resiquimod or motolimod; read-out: EC50 (nmol)
T1 construct: expressed in transfected cells; host or cells: HEK293 (HEK-Blue hTLR8)
T1 sequence (Q9NR97 27-1041): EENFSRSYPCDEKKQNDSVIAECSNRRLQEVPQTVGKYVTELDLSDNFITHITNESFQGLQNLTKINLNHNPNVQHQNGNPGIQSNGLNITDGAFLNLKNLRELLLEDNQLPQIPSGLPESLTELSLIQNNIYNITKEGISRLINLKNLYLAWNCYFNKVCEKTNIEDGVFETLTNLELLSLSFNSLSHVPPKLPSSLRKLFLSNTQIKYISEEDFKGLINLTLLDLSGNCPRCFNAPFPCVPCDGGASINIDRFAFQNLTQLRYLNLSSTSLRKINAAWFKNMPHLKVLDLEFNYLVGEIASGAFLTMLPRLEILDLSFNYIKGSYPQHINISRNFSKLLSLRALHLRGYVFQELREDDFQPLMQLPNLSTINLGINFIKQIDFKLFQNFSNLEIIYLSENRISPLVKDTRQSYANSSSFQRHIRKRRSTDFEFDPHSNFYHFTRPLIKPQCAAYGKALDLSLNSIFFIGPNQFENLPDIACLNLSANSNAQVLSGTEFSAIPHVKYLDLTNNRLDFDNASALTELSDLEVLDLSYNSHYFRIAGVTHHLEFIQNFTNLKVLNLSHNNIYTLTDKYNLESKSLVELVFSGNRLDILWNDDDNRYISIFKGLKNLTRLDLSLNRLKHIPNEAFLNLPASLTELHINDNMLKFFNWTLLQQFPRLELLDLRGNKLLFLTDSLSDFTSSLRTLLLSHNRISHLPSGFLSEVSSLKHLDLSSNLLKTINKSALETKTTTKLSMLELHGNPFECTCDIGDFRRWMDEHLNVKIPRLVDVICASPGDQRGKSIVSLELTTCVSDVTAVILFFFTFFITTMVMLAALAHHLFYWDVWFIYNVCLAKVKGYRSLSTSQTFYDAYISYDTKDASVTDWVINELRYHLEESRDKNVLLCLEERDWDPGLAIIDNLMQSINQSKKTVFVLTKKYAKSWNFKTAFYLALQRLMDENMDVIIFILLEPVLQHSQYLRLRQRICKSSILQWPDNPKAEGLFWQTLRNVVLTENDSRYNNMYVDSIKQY
Description: TLR8 Stimulation Determined by HEK-Blue Detection
This assay was designed to study the stimulation of human TLR 8 protein in HEK-blue hTLR 8 tool cell line by monitoring the activation of NF-κB. HEK-blue hTLR8 cells were obtained by co-transfection of hTLR8 gene and optimized secretory embryonic alkaline phosphatase (SEAP) reporter gene into HEK293 cells. SEAP reporter gene was put under the control of […] minimal promoter fused with five NF-κB and AP-1-binding sites. NF-κB and AP-1 were activated by stimulation with TLR 8 ligand, thus inducing the expression of SEAP. The level of SEAP can be easily determined by HEK-Blue Detection (a cell culture medium that allows real-time detection of SEAP). HEK-Blue Detection comprises all nutrients needed for cell growth and specific SEAP color substrates. The hydrolysis of substrate by SEAP produces purple/blue color which can be measured by spectrophotometer.
When growing to 50-80% confluence, HEK-Blue hTLR7/8 cells were plated into 96-well plates (costar 3599) at a density of 40,000 cells/well. Then, the compound serially diluted at 10 points with a final concentration ranging from 1 nM to 10 μm in 0.1% DMSO/HEK-Blue Detection was added. The plates were then incubated in 5% CO2 at 37° C. for 16 h. Optical density at 620-655 nm was read on BMG PHERAstar FSX instrument. The EC50 of each compound was determined by calculating the maximum activation percentage identified using Resiquimod or motolimod.
The EC50 of the tested compound of the present invention is as follows.

[3] = Human IL6 kit (HTRF), read-out: IL6 (EC50)
[4] = Human TNF alpha kit (HTRF), read-out: TNF-alpha (EC50)

| SMILES | EC50 [1, 3] [nM] | EC50 [1, 4] [nM] | EC50 [2] [nM] |
| --- | --- | --- | --- |
| CCC[C@H](C)Oc1nc(N)c2ncc(CC3CCN(CCNC)CC3)n2n1 [Compound B12, (S)-7-((1-(2-(methylamino)ethyl)piperidin-4-yl)methyl)-2-(pent-2-yloxy)imidazo[2,1-f][1,2,4]triazin-4-amine] | 14 | 10 | 19 |
| CCC[C@H](C)Oc1nc(N)c2ncc(C[C@H]3C[C@@H](N)C3)n2n1 [Compound B30, 7-(((1s,3S)-3-aminocyclobutyl)methyl)-2-(((S)-pent-2-yl)oxy)imidazo[2,1-f][1,2,4]triazin-4-amine] | 85 | 153 | 26 |
| CCC[C@H](C)Oc1nc(N)c2ncc(CC3CCCNCC3)n2n1 (stereo partly drawn) [Compound B25, 7-(azepan-4-ylmethyl)-2-(((S)-pent-2-yl)oxy)imidazo[2,1-f][1,2,4]triazin-4-amine] | 236 | 456 | 63 |
| CCC[C@H](C)Oc1nc(N)c2ncc(CC3CCN(CCN)CC3)n2n1 [Compound B38, (S)-7-((1-(2-aminomethyl)piperidin-4-yl)methyl)-2-(pent-2-yloxy)imidazo[2,1-f][1,2,4]triazin-4-amine] | 28 | 39 | 47 |
